Where a name gives a salt, the structure may show the parent alone.
What follows are molecules tested on Acinetobacter baumannii ATCC17961 (assay: Antimicrobial susceptibility testing: 90% growth inhibitory concentration (IC90) determination). Settings: 90% growth inhibitory concentration, Acinetobacter baumannii ATCC17961, Iso-Sensitest broth, OD 600 nm over 16 h; formic acid; formate; read-out: ATCC 17961 IC90.
Type: cell-based
Procedure, shortened: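 A. baumannii ATCC17961 at ~5×10^5 CFU/ml in Iso-Sensitest broth exposed to 10-point twofold dilutions (e.g. 50–0.097 μM final), 35±2° C. OD600 read every 20 minutes over 16h; IC50 and IC90 derived from inhibition during logarithmic growth.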
`COCCn1ncc(-c2ccc(-c3cnc(C(=O)Nc4ccc(C(=O)N5CCN(C(=O)C6CC[N+](CC(=O)O)(CC7CNC7)CC6)CC5)c(Cl)c4)n3C)c(F)c2F)c1C` (stereo not shown) [Example B30, 2-[1-(azetidin-3-ylmethyl)-4-[4-[2-chloro-4-[[5-[2,3-difluoro-4-[1-(2-methoxyethyl)-5-methyl-pyrazol-4-yl]phenyl]-1-methyl-imidazole-2-carbonyl]amino]benzoyl]piperazine-1-carbonyl]piperidin-1-ium-1-yl]acetic acid; formic acid; formate] gave an IC90 of 0.19 µM.

Same assay, conditions: Acinetobacter baumannii, ATCC17961, 16 h, 90% growth inhibitory concentration, Acinetobacter baumannii ATCC17961, Iso-Sensitest broth, OD 600 nm over 16 h; read-out: ATCC 17961 IC90
Work on `COCCn1cc(-c2ccc(-c3cnc(C(=O)Nc4ccc(C(=O)N5CCN(C(=O)C6CC[N+](C)(C)CC6)CC5)c(Cl)c4)n3C)c(F)c2F)c(N)n1` [Example F26, 5-[4-[3-amino-1-(2-methoxyethyl)pyrazol-4-yl]-2,3-difluoro-phenyl]-N-[3-chloro-4-[4-(1,1-dimethylpiperidin-1-ium-4-carbonyl)piperazine-1-carbonyl]phenyl]-1-methyl-imidazole-2-carboxamide; formate] yielded an IC90 of 1.4 µM. In the case of `Cc1nn(CC(=O)NC2CCC(F)(F)CC2)cc1-c1ccc(-c2cnc(C(=O)Nc3ccc(C(=O)N4CCN(C(=O)C5CC[N+](C)(C)CC5)CC4)c(Cl)c3)n2C)c(F)c1F` [Example G26, N-[3-chloro-4-[4-(1,1-dimethylpiperidin-1-ium-4-carbonyl)piperazine-1-carbonyl]phenyl]-5-[4-[1-[2-[(4,4-difluorocyclohexyl)amino]-2-oxo-ethyl]-3-methyl-pyrazol-4-yl]-2,3-difluoro-phenyl]-1-methyl-imidazole-2-carboxamide; formate], the IC90 is reported as 0.1 µM. `COCCn1ncc(-c2ccc(-c3cnc(C(=O)Nc4ccc(C(=O)N5CCN(C(=O)[C@@H]6C[C@@H](O)C[N+]6(C)C)CC5)c(Cl)c4)n3C)c(F)c2F)c1C(F)F` [Example F12, N-[3-chloro-4-[4-[(2S,4R)-4-hydroxy-1,1-dimethyl-pyrrolidin-1-ium-2-carbonyl]piperazine-1-carbonyl]phenyl]-5-[4-[5-(difluoromethyl)-1-(2-methoxyethyl)pyrazol-4-yl]-2,3-difluoro-phenyl]-1-methyl-imidazole-2-carboxamide; formate] showed an IC90 of 0.17 µM. `Cn1c(-c2ccc(-c3cn(CCCC(N)=O)nc3C(F)(F)F)c(F)c2F)cnc1C(=O)Nc1ccc(C(=O)N2CCN(C(=O)C3CC[N+](C)(C)CC3)CC2)c(Cl)c1` [Example F34, 5-[4-[1-(4-amino-4-oxo-butyl)-3-(trifluoro-methyl)pyrazol-4-yl]-2,3-difluoro-phenyl]-N-[3-chloro-4-[4-(1,1-dimethylpiperidin-1-ium-4-carbonyl)piperazine-1-carbonyl]phenyl]-1-methyl-imidazole-2-carboxamide; formate] was tested, and the IC90 was 0.23 µM. Work on `Cc1nn(CC(=O)NC23CC(C2)C3)cc1-c1ccc(-c2cnc(C(=O)Nc3ccc(C(=O)N4CCN(C(=O)C5CC[N+](C)(C)CC5)CC4)c(Cl)c3)n2C)c(F)c1F` [Example G3, 5-[4-[1-[2-(1-bicyclo[1.1.1]pentanylamino)-2-oxo-ethyl]-3-methyl-pyrazol-4-yl]-2,3-difluoro-phenyl]-N-[3-chloro-4-[4-(1,1-dimethylpiperidin-1-ium-4-carbonyl)piperazine-1-carbonyl]phenyl]-1-methyl-imidazole-2-carboxamide; formate] yielded an IC90 of 0.1 µM. In the case of `Cc1nn(CCNC(=O)Nc2ccccn2)cc1-c1ccc(-c2cnc(C(=O)Nc3ccc(C(=O)N4CCN(C(=O)C5CC[N+](C)(C)CC5)CC4)c(Cl)c3)n2C)c(F)c1F` [Example H7, N-[3-chloro-4-[4-(1,1-dimethylpiperidin-1-ium-4-carbonyl)piperazine-1-carbonyl]phenyl]-5-[2,3-difluoro-4-[3-methyl-1-[2-(2-pyridylcarbamoylamino)ethyl]pyrazol-4-yl]phenyl]-1-methyl-imidazole-2-carboxamide; formate], the IC90 is reported as 0.19 µM.
